{
  "source": "patent US9445979B2",
  "about": "“Hair treatment composition containing gambogic acid, ester or amide” (DSM IP ASSETS B.V., priority 2010, dated 2016)",
  "type_in_all_cases": "cell-based",
  "key": {"[1]": {"system": "melanocytes in human hair follicles", "experiment": "Immunohistochemical analysis of melanocytes in cultured hair follicles (NKI-beteb, Ki67, Trp2, cKit)", "from_the_text": "Number of melanocytes in the hair follicle can be evaluated by standard methods e.g.: immunohistochemical staining of the melanocytes with the pan-melanocyte marker NKI-beteb following by counting the NKI-beteb+ cells.\nDifferentiation and migration of melanocytes from the hair sheath to the hair matrix can be measured by immunohistochemical staining of c-kit+ melanocytes in the hair follicle, and by assessing their distribution within the hair follicle.\n(§1) Tissue containing human hair follicles in the growth stage (anagen) of the hair cycle were obtained from elective facial surgery interventions. Hair follicles were isolated and maintained in culture according to methods well established in the art (Philpott et al. 1990, J Cell Sci. 97: 463-471). Gambogic amide (GA) was administered to pigmented cultured anagen VI hair follicle every other day over a culture period of 7 days in various concentrations comprised between 10 nano molar and 1 micro molar and compared to a control group without addition of GA.\nImmunohistochemical analysis of hair follicle was performed according to standard methods. Immunohistochemical staining of the pan-melanocyte marker NKI-beteb and the proliferation marker Ki67 was used to asses total number of melanocytes in cultured follicles in presence of GA. […] This increase was dose dependent. […]"}, "human hair follicles [2]": {"system": "human hair follicles", "experiment": "Hair shaft elongation, hair cycle progression and toxicity in cultured human anagen VI hair follicles", "protocol": "as §1\nHair shaft elongation was measured as a way to assess possible hair growth promoting or inhibiting effects of GA. […] It is therefore concluded from this first observation that the dose range in which GA can be used is between 10 nano molar and 1 micro molar, and that GA can be used as a hair growth promoting or restoring agent."}, "human hair follicles [3]": {"system": "human hair follicles", "experiment": "Macroscopic analysis of hair follicle pigmentation in cultured anagen hair follicles", "settings": "0.1 to 1 micro molar GA, 7 day culture, versus control group", "protocol": "as §1"}},
  "data": [
    {"smiles": "CC(C)=CCC[C@]1(C)C=Cc2c(O)c3c(c(CC=C(C)C)c2O1)O[C@]12C(=C[C@@H]4C[C@H]1C(C)(C)O[C@@]2(C/C=C(/C)C(N)=O)C4=O)C3=O", "note": "[GA, 2-Butenamide, 2-methyl-4-[(1R,3aS,5S,11R,14aS)-3a,4,5,7-tetrahydro-8-hydroxy-3,3,11-trimethyl-13-(3-methyl-2-buten-1-yl)-11-(4-methyl-3-penten-1-yl)-7,15-dioxo-1,5-methano-1H,3H,11H-furo[3,4-g]pyrano[3,2-b]xanthen-1-yl]-, (2Z)-]", "values": [
      {"measurement": "total number of melanocytes (NKI-beteb and Ki67 staining)", "setting": "[1]; between 0.1 and 0.5 micro molar, hair follicles that remained in the anagen stage", "value": "total number of melanocytes was increased"},
      {"measurement": "cKit labeling (marker for migrating, activated early melanocytes)", "setting": "[1]; hair follicles treated between 0.1 and 1 micro molar GA", "value": "most pronouncedly found"},
      {"measurement": "signs of toxicity", "setting": "human hair follicles [2]; concentrations as high as 1 micro", "value": "No signs of toxicity were observed"},
      {"measurement": "hair shaft elongation compared to control", "setting": "human hair follicles [2]; concentrations between 0.1 and 1 micro molar, 7 days culture", "value": "increase in hair shaft elongation"},
      {"measurement": "hair cycle progression", "setting": "human hair follicles [2]; with the application of GA, 7 days culture", "value": "no hair cycle progression was observed"},
      {"measurement": "hair follicle pigmentation (macroscopic analysis)", "setting": "human hair follicles [3]", "value": "clear and significant improvement of hair follicle pigmentation"}
    ]}
  ]
}
